Source: patent publication US12486267B2, “Imidazo[1,2-A]pyridine and [1,2,4]triazolo[1,5-A]pyridine derivatives as TLR9 inhibitors for the treatment of fibrosis” (BRISTOL-MYERS SQUIBB COMPANY, priority 2020, dated 2025)

Experiments:
Type in all cases: cell-based
human TLR9 = biological target: T1, human TLR9 (Homo sapiens, UniProt Q9NR96); experiment: TLR9 inhibition reporter assay (HEK-Blue cells, SEAP reporter); conditions: HEK-Blue cells overexpressing human TLR9; stimulated with ODN2006 5 nM; 22 hour incubation; SEAP readout
T1 sequence (Q9NR96 26-1032): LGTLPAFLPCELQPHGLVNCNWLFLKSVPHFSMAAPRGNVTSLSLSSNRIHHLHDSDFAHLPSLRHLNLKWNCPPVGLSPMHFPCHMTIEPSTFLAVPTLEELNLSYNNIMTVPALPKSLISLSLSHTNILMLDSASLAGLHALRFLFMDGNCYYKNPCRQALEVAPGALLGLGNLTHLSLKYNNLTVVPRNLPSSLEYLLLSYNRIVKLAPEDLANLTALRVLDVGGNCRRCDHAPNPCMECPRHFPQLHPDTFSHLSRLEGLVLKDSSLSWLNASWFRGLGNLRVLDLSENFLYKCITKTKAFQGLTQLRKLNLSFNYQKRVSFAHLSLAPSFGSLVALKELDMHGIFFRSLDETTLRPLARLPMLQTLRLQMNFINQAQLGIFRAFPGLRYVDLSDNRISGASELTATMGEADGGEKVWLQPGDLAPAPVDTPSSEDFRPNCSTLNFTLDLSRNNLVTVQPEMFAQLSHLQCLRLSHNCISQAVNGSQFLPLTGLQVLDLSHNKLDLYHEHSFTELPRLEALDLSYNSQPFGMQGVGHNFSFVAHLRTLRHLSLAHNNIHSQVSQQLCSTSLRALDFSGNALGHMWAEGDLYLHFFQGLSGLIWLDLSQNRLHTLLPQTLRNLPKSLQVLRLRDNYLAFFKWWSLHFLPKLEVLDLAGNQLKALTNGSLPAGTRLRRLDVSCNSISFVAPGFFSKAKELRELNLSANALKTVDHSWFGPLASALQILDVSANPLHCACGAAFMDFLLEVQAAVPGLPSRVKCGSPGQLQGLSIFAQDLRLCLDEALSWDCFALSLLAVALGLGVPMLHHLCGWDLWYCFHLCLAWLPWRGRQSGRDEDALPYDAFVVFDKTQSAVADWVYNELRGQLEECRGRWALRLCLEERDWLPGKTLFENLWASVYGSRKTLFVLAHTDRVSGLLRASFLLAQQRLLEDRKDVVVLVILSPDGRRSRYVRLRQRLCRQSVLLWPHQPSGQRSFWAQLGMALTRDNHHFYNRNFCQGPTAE
How it was run: (§1)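 HEK-Blue cells with NF-κB/AP-1-driven SEAP pre-treated 30 min with compound (0.05 nM–50 μM), then stimulated with gardiquimod 7.5 μM (TLR7), R848 15.9 μM (TLR8) or ODN2006 5 nM (TLR9). SEAP detected after 22 h at 37 °C; percent inhibition relative to agonist-plus-DMSO and known-inhibitor wells.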

human TLR8 = biological target: T2, human TLR8 (Homo sapiens, UniProt Q9NR97); experiment: TLR8 inhibition reporter assay (HEK-Blue cells, SEAP reporter); conditions: HEK-Blue cells overexpressing human TLR8; stimulated with R848 15.9 μM; 22 hour incubation; SEAP readout
T2 sequence (Q9NR97 27-1041): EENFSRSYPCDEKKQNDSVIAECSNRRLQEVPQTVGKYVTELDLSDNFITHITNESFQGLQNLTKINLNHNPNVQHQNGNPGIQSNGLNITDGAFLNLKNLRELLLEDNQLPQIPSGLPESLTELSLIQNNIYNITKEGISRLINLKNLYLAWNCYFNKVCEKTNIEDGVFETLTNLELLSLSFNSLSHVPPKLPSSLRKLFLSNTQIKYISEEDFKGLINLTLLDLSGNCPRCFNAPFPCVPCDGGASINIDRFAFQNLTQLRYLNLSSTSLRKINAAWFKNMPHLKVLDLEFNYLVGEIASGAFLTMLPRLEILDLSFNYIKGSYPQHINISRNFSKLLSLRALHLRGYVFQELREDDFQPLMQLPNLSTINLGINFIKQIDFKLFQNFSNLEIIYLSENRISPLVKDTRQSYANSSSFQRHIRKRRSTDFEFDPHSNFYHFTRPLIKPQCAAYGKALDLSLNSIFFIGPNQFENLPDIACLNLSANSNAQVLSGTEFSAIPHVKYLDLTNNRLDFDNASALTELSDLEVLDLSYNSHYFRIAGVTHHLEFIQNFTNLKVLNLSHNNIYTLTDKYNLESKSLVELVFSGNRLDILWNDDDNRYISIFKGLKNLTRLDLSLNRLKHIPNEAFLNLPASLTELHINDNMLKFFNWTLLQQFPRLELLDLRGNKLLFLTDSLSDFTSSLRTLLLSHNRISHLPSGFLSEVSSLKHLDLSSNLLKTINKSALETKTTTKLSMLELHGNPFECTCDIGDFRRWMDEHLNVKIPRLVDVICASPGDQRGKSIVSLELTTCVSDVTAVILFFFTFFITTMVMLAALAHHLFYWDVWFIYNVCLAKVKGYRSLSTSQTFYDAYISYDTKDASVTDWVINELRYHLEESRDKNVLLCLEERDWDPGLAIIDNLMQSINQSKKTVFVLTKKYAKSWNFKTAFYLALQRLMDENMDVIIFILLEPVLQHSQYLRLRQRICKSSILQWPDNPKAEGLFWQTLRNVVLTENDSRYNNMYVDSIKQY
How it was run: as §1

human TLR7 = biological target: T3, human TLR7 (Homo sapiens, UniProt Q9NYK1); experiment: TLR7 inhibition reporter assay (HEK-Blue cells, SEAP reporter); conditions: HEK-Blue cells overexpressing human TLR7; stimulated with gardiquimod 7.5 μM; 22 hour incubation; SEAP readout
T3 sequence (Q9NYK1 27-1049): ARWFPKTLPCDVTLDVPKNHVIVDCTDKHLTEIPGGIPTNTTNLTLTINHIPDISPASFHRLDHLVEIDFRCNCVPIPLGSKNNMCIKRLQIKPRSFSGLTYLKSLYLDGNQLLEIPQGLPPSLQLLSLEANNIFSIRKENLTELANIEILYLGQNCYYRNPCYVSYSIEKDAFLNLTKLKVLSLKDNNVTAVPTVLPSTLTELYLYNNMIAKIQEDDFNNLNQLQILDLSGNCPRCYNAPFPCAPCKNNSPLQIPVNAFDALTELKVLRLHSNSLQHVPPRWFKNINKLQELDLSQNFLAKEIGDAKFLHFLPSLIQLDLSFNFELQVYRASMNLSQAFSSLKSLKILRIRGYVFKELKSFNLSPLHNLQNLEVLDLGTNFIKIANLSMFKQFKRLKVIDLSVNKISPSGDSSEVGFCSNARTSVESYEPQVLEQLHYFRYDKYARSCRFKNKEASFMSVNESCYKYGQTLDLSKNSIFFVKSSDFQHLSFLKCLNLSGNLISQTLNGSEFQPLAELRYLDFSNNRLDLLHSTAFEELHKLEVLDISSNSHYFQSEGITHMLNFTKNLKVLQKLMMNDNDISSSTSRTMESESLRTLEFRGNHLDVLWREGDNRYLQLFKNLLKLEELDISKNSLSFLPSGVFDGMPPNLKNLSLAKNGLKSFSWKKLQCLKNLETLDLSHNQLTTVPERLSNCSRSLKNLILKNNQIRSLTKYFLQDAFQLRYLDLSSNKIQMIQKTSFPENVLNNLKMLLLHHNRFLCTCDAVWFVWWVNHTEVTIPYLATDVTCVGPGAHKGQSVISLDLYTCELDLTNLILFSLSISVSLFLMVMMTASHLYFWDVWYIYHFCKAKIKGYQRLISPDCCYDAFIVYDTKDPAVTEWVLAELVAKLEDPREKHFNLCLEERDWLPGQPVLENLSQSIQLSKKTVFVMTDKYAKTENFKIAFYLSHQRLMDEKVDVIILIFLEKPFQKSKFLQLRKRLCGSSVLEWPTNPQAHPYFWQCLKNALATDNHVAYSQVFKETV
How it was run: as §1

Structure (SMILES): CS(=O)(=O)c1ccc(-c2cn3c(n2)CC[C@@H](C2CCN(C4CC5CCC(C4)N5CC4CC4)CC2)C3)cc1 (single isomer, unassigned) [Example 141]
- IC50 (human TLR9): 0.023 µM
- IC50 (human TLR8): > 50 µM
- IC50 (human TLR7): 15.8 µM

Structure (SMILES): COc1ccc(-c2cn3cc(C4CCN(C5CC6(C5)CN(CC5CC5)C6)CC4)cc(C)c3n2)cc1OC [Example 16, 6-(1-(2-(cyclopropylmethyl)-2-azaspiro[3.3]heptan-6-yl)piperidin-4-yl)-2-(3,4-dimethoxyphenyl)-8-methylimidazo[1,2-a]pyridine]
- IC50 (human TLR9): 0.014 µM
- IC50 (human TLR8): > 50 µM
- IC50 (human TLR7): 2 µM

Structure (SMILES): COc1ccc(-c2cn3c(n2)CCC(C2CCN(C4CC5(C4)CN(C4CCC4)C5)CC2)C3)cc1OC (single isomer, unassigned) [Example 50, 6-(1-(2-cyclobutyl-2-azaspiro[3.3]heptan-6-yl)piperidin-4-yl)-2-(3,4-dimethoxyphenyl)-5,6,7,8-tetrahydroimidazo[1,2-a]pyridine]
- IC50 (human TLR9): 0.04 µM
- IC50 (human TLR8): > 50 µM
- IC50 (human TLR7): 5.3 µM

Structure (SMILES): COc1ccc(-c2cn3cc(C4CC5CCC(C4)N5C4CCN(C5CC5)CC4)cc(C)c3n2)cc1OC (single isomer, unassigned) [Example 25, 6-(8-(1-cyclopropylpiperidin-4-yl)-8-azabicyclo[3.2.1]octan-3-yl)-2-(3,4-dimethoxyphenyl)-8-methylimidazo[1,2-a]pyridine]
- IC50 (human TLR9): 0.016 µM
- IC50 (human TLR8): 20 µM
- IC50 (human TLR7): 3.5 µM

Structure (SMILES): COc1ccc(-c2cn3c(n2)CCC(C2CCN(C4CCN(C(=O)C(C)C)CC4)CC2)C3)cc1OC (racemic) [Example 39, 1-(4-(2-(3,4-dimethoxyphenyl)-5,6,7,8-tetrahydroimidazo[1,2-a]pyridin-6-yl)-[1,4′-bipiperidin]-1′-yl)-2-methylpropan-1-one]
- IC50 (human TLR9): 0.141 µM
- IC50 (human TLR8): > 50 µM
- IC50 (human TLR7): 43 µM

Structure (SMILES): COc1ccc(-c2cn3cc(C4CCN(C5CCN(C6CC6)CC5)CC4)cc(C)c3n2)cc1F [Example 4, 6-(1′-cyclopropyl-[1,4′-bipiperidin]-4-yl)-2-(3-fluoro-4-methoxyphenyl)-8-methylimidazo[1,2-a]pyridine]
- IC50 (human TLR9): 0.146 µM
- IC50 (human TLR8): > 50 µM
- IC50 (human TLR7): 5.5 µM

Structure (SMILES): COc1ccc(-c2cn3c(n2)CC[C@H](C2CCN(C4CC5CCC(C4)N5C(C)C)CC2)C3)cc1OC (single isomer, unassigned) [Example 135]
- IC50 (human TLR9): 0.042 µM
- IC50 (human TLR8): > 25 µM
- IC50 (human TLR7): 3.9 µM

Structure (SMILES): Cc1cc(-c2ccc(N3CCN(C4CCOCC4)CC3)cc2)cn2cc(-c3ccc(S(C)(=O)=O)cc3)nc12 [Example 104, 8-methyl-2-(4-(methylsulfonyl)phenyl)-6-(4-(4-(tetrahydro-2H-pyran-4-yl)piperazin-1-yl)phenyl)imidazo[1,2-a]pyridine]
- IC50 (human TLR9): 0.451 µM
- IC50 (human TLR8): > 50 µM
- IC50 (human TLR7): 5.1 µM

Structure (SMILES): CS(=O)(=O)c1ccc(-c2cn3cc(C4CCN(C5CC6CCC(C5)N6C5CCOCC5)CC4)cc(F)c3n2)cc1 (single isomer, unassigned) [Example 122, 8-fluoro-2-(4-(methylsulfonyl)phenyl)-6-(1-(8-(tetrahydro-2H-pyran-4-yl)-8-azabicyclo[3.2.1]octan-3-yl)piperidin-4-yl) imidazo[1,2-a]pyridine]
- IC50 (human TLR9): 0.0078 µM
- IC50 (human TLR8): 27 µM
- IC50 (human TLR7): 1.3 µM

Structure (SMILES): Cc1cc(C2CCN(C3CC4CCC(C3)N4CC3CC3)CC2)cn2cc(-c3ccc(S(C)(=O)=O)cc3)nc12 (single isomer, unassigned) [Example 87, 6-(1-(8-(cyclopropylmethyl)-8-azabicyclo[3.2.1]octan-3-yl)piperidin-4-yl)-8-methyl-2-(4-(methylsulfonyl)phenyl) imidazo[1,2-a]pyridine]
- IC50 (human TLR9): 0.028 µM
- IC50 (human TLR8): > 25 µM
- IC50 (human TLR7): 4.4 µM

Structure (SMILES): COc1ccc(-c2nc3n(n2)CC(c2ccc(N4CC5CCC(C4)N5C(C)C)cc2)CC3C)cc1OC (stereo not drawn) [Example 152, 2-(3,4-dimethoxyphenyl)-6-(4-(8-isopropyl-3,8-diazabicyclo[3.2.1]octan-3-yl)phenyl)-8-methyl-5,6,7,8-tetrahydro-[1,2,4]triazolo[1,5-a]pyridine]
- IC50 (human TLR9): 0.357 µM
- IC50 (human TLR8): > 50 µM
- IC50 (human TLR7): > 50 µM

Structure (SMILES): Cc1cc(-c2ccc(N3CCN(CC(C)C)CC3)cc2)cn2cc(-c3ccc(S(C)(=O)=O)cc3)nc12 [Example 99, 6-(4-(4-isobutylpiperazin-1-yl)phenyl)-8-methyl-2-(4-(methylsulfonyl)phenyl) imidazo[1,2-a]pyridine]
- IC50 (human TLR9): 0.624 µM
- IC50 (human TLR8): > 50 µM
- IC50 (human TLR7): > 50 µM

Structure (SMILES): COc1ccc(-c2cn3cc(C4CCN(C5CCN(CC(C)C)CC5)CC4)cc(C)c3n2)cc1F [Example 6, 2-(3-fluoro-4-methoxyphenyl)-6-(1′-isobutyl-[1,4′-bipiperidin]-4-yl)-8-methylimidazo[1,2-a]pyridine]
- IC50 (human TLR9): 0.252 µM
- IC50 (human TLR8): > 50 µM
- IC50 (human TLR7): 16 µM
